Measured values as given in PubChem BioAssay (NCI).
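96-well plates; 48 h exposure; 5 concentrations. Endpoints by linear interpolation between flanking doses. Not reached: highest tested concentration assigned. GI50 marks 50% less growth. TGI marks complete inhibition of growth.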

Columns and labels:
Test in all cases: NCI anticancer screen, dose series, 48 h; in the data active = GI50 below about 0.43 µM; inactive = the rest
NCI/ADR-RES ovarian = tested on: NCI/ADR-RES ovarian
MCF7 breast = tested on: MCF7 breast
UO-31 renal = tested on: UO-31 renal
UACC-62 melanoma = tested on: UACC-62 melanoma
SK-MEL-5 melanoma = tested on: SK-MEL-5 melanoma
KM12 colon = tested on: KM12 colon
786-0 renal = tested on: 786-0 renal
BT-549 breast = tested on: BT-549 breast
HL-60(TB) leukemia = tested on: HL-60(TB) leukemia
DU-145 prostate = tested on: DU-145 prostate
U251 CNS = tested on: U251 CNS
CAKI-1 renal = tested on: CAKI-1 renal
NCI-H23 lung = tested on: NCI-H23 lung
HOP-62 NSCLC = tested on: HOP-62 NSCLC
OVCAR-3 ovarian = tested on: OVCAR-3 ovarian
COLO 205 colon = tested on: COLO 205 colon
ACHN renal = tested on: ACHN renal
OVCAR-8 ovarian = tested on: OVCAR-8 ovarian
SNB-19 CNS = tested on: SNB-19 CNS
HT29 colon = tested on: HT29 colon
HS 578T breast = tested on: HS 578T breast
PC-3 prostate = tested on: PC-3 prostate
NCI-H460 lung = tested on: NCI-H460 lung
UACC-257 melanoma = tested on: UACC-257 melanoma
SK-MEL-2 melanoma = tested on: SK-MEL-2 melanoma
HCT-15 colon = tested on: HCT-15 colon
SF-539 CNS = tested on: SF-539 CNS
LOX IMVI melanoma = tested on: LOX IMVI melanoma
NCI-H522 lung = tested on: NCI-H522 lung
SK-MEL-28 melanoma = tested on: SK-MEL-28 melanoma
MOLT-4 leukemia = tested on: MOLT-4 leukemia
OVCAR-5 ovarian = tested on: OVCAR-5 ovarian
SN12C renal = tested on: SN12C renal
TK-10 renal = tested on: TK-10 renal
SF-268 CNS = tested on: SF-268 CNS
IGROV1 ovarian = tested on: IGROV1 ovarian
SR leukemia = tested on: SR leukemia
K-562 leukemia = tested on: K-562 leukemia
EKVX NSCLC = tested on: EKVX NSCLC
NCI-H226 lung = tested on: NCI-H226 lung
A549 NSCLC = tested on: A549 NSCLC
SF-295 CNS = tested on: SF-295 CNS
HCT-116 colon = tested on: HCT-116 colon
MDA-MB-435 = tested on: MDA-MB-435
MDA-MB-231 breast = tested on: MDA-MB-231 breast
SW-620 colon = tested on: SW-620 colon
RXF 393 renal = tested on: RXF 393 renal
RPMI-8226 leukemia = tested on: RPMI-8226 leukemia
SNB-75 CNS = tested on: SNB-75 CNS
M14 melanoma = tested on: M14 melanoma
HOP-92 NSCLC = tested on: HOP-92 NSCLC
SK-OV-3 ovarian = tested on: SK-OV-3 ovarian
OVCAR-4 ovarian = tested on: OVCAR-4 ovarian
A498 renal = tested on: A498 renal
CCRF-CEM leukemia = tested on: CCRF-CEM leukemia
HCC-2998 colon = tested on: HCC-2998 colon

COc1ccc(Nc2c3ccccc3nc3[nH]c4ccccc4c23)cc1
25 µM: TGI (ACHN renal)
33.4 µM: TGI (RPMI-8226 leukemia)
49.2 µM: TGI (786-0 renal)
28 µM: TGI (HCT-116 colon)
29.5 µM: TGI (LOX IMVI melanoma)
inactive: GI50 (NCI/ADR-RES ovarian) 18.9 µM | GI50 (MCF7 breast) 7.95 µM | GI50 (UO-31 renal) 38.9 µM | GI50 (UACC-62 melanoma) 16.2 µM | GI50 (SK-MEL-5 melanoma) 5.52 µM | GI50 (KM12 colon) > 50 µM | GI50 (786-0 renal) 11.4 µM | GI50 (BT-549 breast) 13.7 µM | GI50 (HL-60(TB) leukemia) 4.98 µM | GI50 (DU-145 prostate) 6.47 µM | GI50 (U251 CNS) 11.7 µM | GI50 (CAKI-1 renal) 14 µM | GI50 (NCI-H23 lung) > 50 µM | GI50 (HOP-62 NSCLC) 8.71 µM | GI50 (OVCAR-3 ovarian) 19.4 µM | GI50 (COLO 205 colon) 17.8 µM | GI50 (ACHN renal) 7.36 µM | GI50 (OVCAR-8 ovarian) 30.2 µM | GI50 (SNB-19 CNS) 25.5 µM | GI50 (HT29 colon) 16.6 µM | GI50 (HS 578T breast) 21 µM | GI50 (PC-3 prostate) 7.87 µM | GI50 (NCI-H460 lung) 2.28 µM | GI50 (UACC-257 melanoma) 21.2 µM | GI50 (SK-MEL-2 melanoma) > 50 µM | GI50 (HCT-15 colon) 8.33 µM | GI50 (SF-539 CNS) 6.5 µM | GI50 (LOX IMVI melanoma) 6.44 µM | GI50 (NCI-H522 lung) 41.5 µM | GI50 (SK-MEL-28 melanoma) 18.5 µM | GI50 (MOLT-4 leukemia) 2.35 µM | GI50 (OVCAR-5 ovarian) 26.7 µM | GI50 (SN12C renal) 18.5 µM | GI50 (TK-10 renal) 26.7 µM | GI50 (SF-268 CNS) 17.2 µM | GI50 (IGROV1 ovarian) 16.9 µM | GI50 (SR leukemia) 3.84 µM | GI50 (K-562 leukemia) 7.17 µM | GI50 (EKVX NSCLC) 10.9 µM | GI50 (NCI-H226 lung) 7.65 µM | GI50 (A549 NSCLC) 8.49 µM | GI50 (SF-295 CNS) 8.9 µM | GI50 (HCT-116 colon) 4.83 µM | GI50 (MDA-MB-435) 8.92 µM | GI50 (MDA-MB-231 breast) 14.5 µM | GI50 (SW-620 colon) 9.89 µM | GI50 (RXF 393 renal) > 50 µM | GI50 (RPMI-8226 leukemia) 2.33 µM
28.9 µM: TGI (PC-3 prostate)
33.9 µM: TGI (DU-145 prostate)
42.8 µM: TGI (U251 CNS)
> 50 µM: TGI (NCI/ADR-RES ovarian) | TGI (MCF7 breast) | TGI (UO-31 renal) | TGI (UACC-62 melanoma) | TGI (SK-MEL-5 melanoma) | TGI (KM12 colon) | TGI (BT-549 breast) | TGI (HL-60(TB) leukemia) | TGI (CAKI-1 renal) | TGI (NCI-H23 lung) | TGI (OVCAR-3 ovarian) | TGI (COLO 205 colon) | TGI (OVCAR-8 ovarian) | TGI (SNB-19 CNS) | TGI (HT29 colon) | TGI (HS 578T breast) | TGI (NCI-H460 lung) | TGI (UACC-257 melanoma) | TGI (SK-MEL-2 melanoma) | TGI (HCT-15 colon) | TGI (NCI-H522 lung) | TGI (SK-MEL-28 melanoma) | TGI (MOLT-4 leukemia) | TGI (OVCAR-5 ovarian) | TGI (SN12C renal) | TGI (TK-10 renal) | TGI (SF-268 CNS) | TGI (IGROV1 ovarian) | TGI (SR leukemia) | TGI (K-562 leukemia) | TGI (EKVX NSCLC) | TGI (NCI-H226 lung) | TGI (A549 NSCLC) | TGI (SF-295 CNS) | TGI (MDA-MB-435) | TGI (MDA-MB-231 breast) | TGI (SW-620 colon) | TGI (RXF 393 renal)
20 µM: TGI (SF-539 CNS)
23.2 µM: TGI (HOP-62 NSCLC)

CC(C)(C)c1cc(C#N)cc(Br)c1OP(=O)(Oc1c(Br)cc(C#N)cc1C(C)(C)C)c1ccccc1
inactive: GI50 (SR leukemia) 10.5 µM

ClCC[N+]12CC[N+](CCCl)(CC1)C2 (tested in a mixture with another compound)
inactive: GI50 (SK-MEL-2 melanoma) 43.2 µM | GI50 (SNB-75 CNS) 58.6 µM | GI50 (RXF 393 renal) 85.4 µM

COC(=O)[C@@H](C)C[C@H](Cc1ccccc1)NC(=O)c1csc([C@@H](C[C@H](C(C)C)N(C)C(=O)[C@H](C)NC(=O)[C@H]2CCCCN2C)OC(C)=O)n1
1.71 µM: TGI (SNB-75 CNS)
inactive: GI50 (NCI/ADR-RES ovarian) > 25 µM | GI50 (MCF7 breast) 0.437 µM | GI50 (M14 melanoma) 0.859 µM | GI50 (UO-31 renal) 19.2 µM | GI50 (UACC-62 melanoma) 1.27 µM | GI50 (SK-MEL-5 melanoma) 0.86 µM | GI50 (KM12 colon) 1.11 µM | GI50 (786-0 renal) 1.05 µM | GI50 (BT-549 breast) 0.979 µM | GI50 (DU-145 prostate) 1.05 µM | GI50 (U251 CNS) 1.58 µM | GI50 (NCI-H23 lung) 7.55 µM | GI50 (HOP-62 NSCLC) 3.27 µM | GI50 (OVCAR-3 ovarian) 0.551 µM | GI50 (COLO 205 colon) 1.12 µM | GI50 (OVCAR-8 ovarian) 3.67 µM | GI50 (SNB-19 CNS) 0.901 µM | GI50 (HOP-92 NSCLC) 0.982 µM | GI50 (HT29 colon) 0.816 µM | GI50 (HS 578T breast) 1.39 µM | GI50 (SK-OV-3 ovarian) 11 µM | GI50 (PC-3 prostate) 0.821 µM | GI50 (NCI-H460 lung) 1.18 µM | GI50 (UACC-257 melanoma) > 25 µM | GI50 (SK-MEL-2 melanoma) 0.929 µM | GI50 (SNB-75 CNS) 0.47 µM | GI50 (HCT-15 colon) 3.37 µM | GI50 (SF-539 CNS) 1.42 µM | GI50 (LOX IMVI melanoma) 1.74 µM | GI50 (SK-MEL-28 melanoma) > 25 µM | GI50 (MOLT-4 leukemia) 2.22 µM | GI50 (OVCAR-5 ovarian) 9.48 µM | GI50 (SN12C renal) 2.08 µM | GI50 (TK-10 renal) > 25 µM | GI50 (SF-268 CNS) 1.65 µM | GI50 (IGROV1 ovarian) 1.14 µM | GI50 (OVCAR-4 ovarian) 2.05 µM | GI50 (SR leukemia) 0.452 µM | GI50 (A498 renal) 1.87 µM | GI50 (EKVX NSCLC) 5.74 µM | GI50 (NCI-H226 lung) > 25 µM | GI50 (A549 NSCLC) 8.67 µM | GI50 (CCRF-CEM leukemia) 1.05 µM | GI50 (HCC-2998 colon) 1.75 µM | GI50 (SF-295 CNS) 3.95 µM | GI50 (HCT-116 colon) 0.774 µM | GI50 (MDA-MB-231 breast) 1.24 µM | GI50 (SW-620 colon) 0.861 µM | GI50 (RXF 393 renal) 1 µM | GI50 (RPMI-8226 leukemia) 0.567 µM
24.2 µM: TGI (RXF 393 renal)
20.2 µM: TGI (COLO 205 colon)
11.3 µM: TGI (M14 melanoma)
1.35 µM: TGI (NCI-H522 lung)
20.6 µM: TGI (SF-539 CNS)
0.522 µM: TGI (MDA-MB-435)
active: GI50 (NCI-H522 lung) 0.384 µM | GI50 (K-562 leukemia) 0.278 µM | GI50 (MDA-MB-435) 0.121 µM
> 25 µM: TGI (NCI/ADR-RES ovarian) | TGI (MCF7 breast) | TGI (UO-31 renal) | TGI (UACC-62 melanoma) | TGI (SK-MEL-5 melanoma) | TGI (KM12 colon) | TGI (786-0 renal) | TGI (DU-145 prostate) | TGI (U251 CNS) | TGI (NCI-H23 lung) | TGI (HOP-62 NSCLC) | TGI (OVCAR-3 ovarian) | TGI (OVCAR-8 ovarian) | TGI (SNB-19 CNS) | TGI (HOP-92 NSCLC) | TGI (HT29 colon) | TGI (HS 578T breast) | TGI (SK-OV-3 ovarian) | TGI (PC-3 prostate) | TGI (NCI-H460 lung) | TGI (UACC-257 melanoma) | TGI (SK-MEL-2 melanoma) | TGI (HCT-15 colon) | TGI (LOX IMVI melanoma) | TGI (SK-MEL-28 melanoma) | TGI (MOLT-4 leukemia) | TGI (OVCAR-5 ovarian) | TGI (SN12C renal) | TGI (TK-10 renal) | TGI (SF-268 CNS) | TGI (IGROV1 ovarian) | TGI (OVCAR-4 ovarian) | TGI (SR leukemia) | TGI (K-562 leukemia) | TGI (EKVX NSCLC) | TGI (NCI-H226 lung) | TGI (A549 NSCLC) | TGI (CCRF-CEM leukemia) | TGI (HCC-2998 colon) | TGI (SF-295 CNS) | TGI (HCT-116 colon) | TGI (MDA-MB-231 breast) | TGI (SW-620 colon) | TGI (RPMI-8226 leukemia)
14.1 µM: TGI (A498 renal)
17.5 µM: TGI (BT-549 breast)
